Legend:
dog = conditions: Sub-acute repeat dose toxicity, beagle, Oral, Water, dose end: 28 day, group: systemic
rabbit [1] = conditions: Prenatal developmental toxicity study, new zealand white, Oral, Gavage/Intubation, dose end: 19 GD
rat [2] = conditions: Multigenerational reproductive toxicity study, sprague dawley, Oral, Water, dose end: 2 generation
rat [3] = conditions: Multigenerational reproductive toxicity study, other, Oral, Water, dose end: 2 generation
rabbit [4] = conditions: Prenatal developmental toxicity study, new zealand white, Oral, Gavage/Intubation, dose end: 27 GD, group: maternal
rat [5] = conditions: Combined chronic toxicity/carcinogenicity, sprague dawley, Oral, Water, dose end: 104 week, group: systemic
[6] = systemic / pathology microscopic / nose / inflammation
[7] = systemic / pathology microscopic / nose / inflammation + systemic / pathology microscopic / stomach / hypertrophy
[8] = group: developmental, developmental / developmental malformation / aortic arch / dilated + developmental / developmental malformation / bone / [other] + …
[9] = group: maternal, systemic / in life observation / body weight / body weight gain + systemic / in life observation / clinical signs / defecation + systemic / …
[10] = group: offspring, reproductive / offspring survival early / dead fetuses / dead fetuses + reproductive / offspring survival early / live fetuses / live …
[11] = group: parental, systemic / in life observation / food consumption / food consumption + systemic / in life observation / water consumption / water …
[12] = group: reproductive, reproductive / reproductive performance / dystocia / dystocia
[13] = group: reproductive, reproductive / reproductive performance / dystocia / dystocia + reproductive / reproductive performance / postimplantation loss / …
[14] = group: offspring, systemic / in life observation / body weight / offspring (pup) weight + systemic / organ weight / kidney / absolute + systemic / organ …
[15] = group: parental, systemic / in life observation / water consumption / water consumption
[16] = group: parental, systemic / in life observation / water consumption / water consumption + systemic / in life observation / body weight / body weight + …
[17] = group: reproductive, reproductive / reproductive performance / fertility / fertility
[18] = systemic / in life observation / body weight / body weight + systemic / in life observation / food consumption / food consumption + systemic…
[19] = systemic / in life observation / water consumption / water consumption

O=[N+]([O-])C(Br)(CO)CO [Bronopol]
LEL (dog; [6]): 4.1 mg/kg/day | NEL (dog; [6]): < 4.1 mg/kg/day | LOAEL (dog; [7]): > 32.6 mg/kg/day | NOAEL (dog; [7]): ≥ 32.6 mg/kg/day | LEL (rabbit [1]; [8]): 80 mg/kg/day | LOAEL (rabbit [1]; [8]): 80 mg/kg/day | NEL (rabbit [1]; [8]): 40 mg/kg/day | NOAEL (rabbit [1]; [8]): 40 mg/kg/day | LEL (rabbit [1]; [9]): 80 mg/kg/day | LOAEL (rabbit [1]; [9]): 80 mg/kg/day | NEL (rabbit [1]; [9]): 40 mg/kg/day | NOAEL (rabbit [1]; [9]): 40 mg/kg/day | LEL (rat [2]; [10]): 150 mg/kg/day | LOAEL (rat [2]; [10]): 150 mg/kg/day | NEL (rat [2]; [10]): 50 mg/kg/day | NOAEL (rat [2]; [10]): 50 mg/kg/day | LEL (rat [2]; [11]): 50 mg/kg/day | LOAEL (rat [2]; [11]): 50 mg/kg/day | NEL (rat [2]; [11]): 10 mg/kg/day | NOAEL (rat [2]; [11]): 10 mg/kg/day | NEL (rat [2]; [12]): 50 mg/kg/day | NOAEL (rat [2]; [12]): 50 mg/kg/day | LEL (rat [2]; [13]): 150 mg/kg/day | LOAEL (rat [2]; [13]): 150 mg/kg/day | NEL (rat [3]; group: offspring, systemic / in life observation / body weight / offspring (pup) weight): 70 mg/kg/day | LEL (rat [3]; [14]): 200 mg/kg/day | LOAEL (rat [3]; [14]): > 200 mg/kg/day | NOAEL (rat [3]; [14]): ≥ 200 mg/kg/day | LEL (rat [3]; [15]): 25 mg/kg/day | NEL (rat [3]; [15]): < 25 mg/kg/day | LOAEL (rat [3]; [16]): > 200 mg/kg/day | NOAEL (rat [3]; [16]): ≥ 200 mg/kg/day | LEL (rat [3]; [17]): 200 mg/kg/day | LOAEL (rat [3]; [17]): > 200 mg/kg/day | NEL (rat [3]; [17]): 70 mg/kg/day | NOAEL (rat [3]; [17]): ≥ 200 mg/kg/day | LOAEL (rabbit [4]; systemic / in life observation / body weight / body weight + systemic / in life observation / food consumption / food consumption): 40 mg/kg/day | LEL (rabbit [4]; [18]): 40 mg/kg/day | NEL (rabbit [4]; [18]): 10 mg/kg/day | NOAEL (rabbit [4]; [18]): 10 mg/kg/day | LEL (rat [5]; [19]): 10 mg/kg/day | NEL (rat [5]; [19]): < 10 mg/kg/day | LOAEL (rat [5]; systemic / in life observation / water consumption / water consumption + systemic / in life observation / body weight / body weight gain + …): 40 mg/kg/day | NOAEL (rat [5]; systemic / in life observation / water consumption / water consumption + systemic / pathology microscopic / stomach / squamous cell …): 10 mg/kg/day

Reference: EPA's ToxRefDB 2
